Source: PubChem BioAssay (NCI)
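How tested: cells in 96-well plates exposed to compound for 48 hours at five concentrations. At the TGI there is no net growth.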

Columns and labels:
Assay in all cases: NCI-60 cell line screen, 48 h
SNB-75 CNS = system: SNB-75 CNS
T-47D breast = system: T-47D breast
PC-3 prostate = system: PC-3 prostate
SF-295 CNS = system: SF-295 CNS
SK-OV-3 ovarian = system: SK-OV-3 ovarian
NCI/ADR-RES ovarian = system: NCI/ADR-RES ovarian
SF-268 CNS = system: SF-268 CNS
SW-620 colon = system: SW-620 colon
NCI-H522 lung = system: NCI-H522 lung
MCF7 breast = system: MCF7 breast
SR leukemia = system: SR leukemia

Row | Compound | TGI (SNB-75 CNS) [µM] | TGI (T-47D breast) [µM] | TGI (PC-3 prostate) [µM] | TGI (SF-295 CNS) [µM] | TGI (SK-OV-3 ovarian) [µM] | TGI (NCI/ADR-RES ovarian) [µM] | TGI (SF-268 CNS) [µM] | TGI (SW-620 colon) [µM] | TGI (NCI-H522 lung) [µM] | TGI (MCF7 breast) [µM] | TGI (SR leukemia) [µM]
1 | C/C(=N\NC(=O)/C(C#N)=C\c1ccc(N(CCC#N)CCC#N)cc1)c1ccccc1 | > 10 | > 10 | > 10 | > 10 | > 10 | > 10 | > 10 | > 10 | > 10 | > 10 | > 10
2 | Cc1cnc2[nH]c(-c3ccc(F)cc3)cc(=O)c2c1 | 62.8 | > 100 | > 100 | 99 | > 68 | > 87.5 | > 100 | > 100 | 50.4 | > 100 | > 61.5
3 | Cc1ccc(S(=O)(=O)[N-]C2C(=O)c3ccccc3C(=O)C2[n+]2cccc(C(N)=O)c2)cc1 (stereo not drawn) | > 100 | > 100 | > 100 | > 100 | > 100 | > 100 | > 100 | > 100 | > 100 | > 100 | > 100
4 | Cc1cc(S(=O)(=O)Nc2nc(N)nc(N3CCOCC3)n2)c(SCC(=O)O)cc1Cl | > 10 | > 10 | > 10 | > 10 | > 10 | > 10 | > 10 | > 10 | > 10 | > 10 | > 10
5 | CC(=O)NCC1(c2ccccc2)CCN(CC2COc3ccccc3O2)CC1 (stereo not drawn) | > 100 | > 100 | > 100 | > 100 | > 100 | > 100 | > 100 | > 100 | > 100 | > 100 | > 100
6 | CC1(C)CCCCCCCCCC(C)(CCCO)C1=O (stereo not drawn) | 31.9 | 29.3 | 27 | 32.7 | 31.4 | 30.5 | 33.4 | 34.1 | 29.7 | 31.1 | > 100
7 | CC(=O)O[C@H]1C(=O)[C@@]2(C)[C@H]([C@H](OC(=O)c3ccc([N+](=O)[O-])cc3)[C@]3(O)C[C@H](OC(=O)[C@H](O)[C@@H](NC(=O)c4ccccc4)c4ccccc4)C(C)=C1C3(C)C)[C@]1(OC(C)=O)CO[C@@H]1C[C@@H]2O | > 25 | > 25 | > 25 | > 25 | > 25 | > 25 | > 25 | > 25 | > 25 | > 25 | > 25
8 | O=c1oc2cc(O)ccc2c(O)c1C(c1ccccn1)c1c(O)c2ccc(O)cc2oc1=O | > 100 | > 100 | > 100 | > 100 | > 100 | > 100 | > 100 | > 100 | > 100 | > 100 | > 100
9 | COc1ccc2nc3cc([N+](=O)[O-])ccc3c(NNc3ccc(Cl)cc3)c2c1 | > 100 | > 100 | > 77.5 | > 100 | > 100 | > 100 | > 100 | > 76.3 | 83.7 | > 100 | 37.7
10 | CCOC(=O)c1cc(C2CCN(CC(C)CC)C2=S)c(C(=O)/C=C(/C)N)[nH]1 (stereo not drawn) | > 50 | > 50 | > 50 | > 50 | > 50 | > 50 | > 50 | > 50 | – | > 50 | > 50
11 | CS(=O)(=O)c1[nH]nc2[nH]c(=O)[nH]c(=O)c12 | > 10 | > 10 | > 10 | > 10 | > 10 | > 10 | > 10 | > 10 | > 10 | > 10 | > 10
12 | COC1C=C(NCC2(CO)CCC2)NC(N)=N1 (stereo not drawn) | > 100 | > 100 | > 100 | > 100 | > 100 | > 100 | > 100 | > 100 | > 100 | > 100 | > 100
13 | CC(=O)n1nc(-c2nc3ccccc3nc2Cl)cc1Cl | 76.6 | > 100 | > 100 | > 93.2 | > 77.7 | 55.8 | > 100 | > 100 | 31.2 | > 82.6 | 13.3
14 | NC(C(F)(F)F)(C(F)(F)F)P(=O)(c1ccccc1)c1ccccc1 | > 100 | > 100 | > 100 | > 100 | > 100 | > 100 | > 100 | > 100 | – | > 100 | > 100
15 | CC(=O)OCC1OC(n2c3c(c(-c4ccc(Cl)cc4)c(C#N)c2=S)C(=O)CC(C)(C)C3)C(OC(C)=O)C(OC(C)=O)C1OC(C)=O (stereo not drawn) | 44.3 | > 27.7 | 63.6 | > 100 | – | > 67.8 | 29 | > 100 | > 58.1 | > 95.3 | > 100
16 | Nc1nc(Cl)cc(NCC2(CO)CCC2)n1 | > 100 | > 100 | > 100 | > 100 | > 100 | > 100 | > 100 | > 100 | > 100 | > 100 | > 100
